Tests used:
KRas G12C = target: T1, KRas G12C (Homo sapiens, UniProt P01116, G12C); assay: KRas binding assay, TR-FRET displacement of Cy5 labelled tracer; conditions: 60-minute incubation at room temperature, 1% DMSO, pH 7.5
T1 construct: Biotinylated KRas (corresponding to amino acids 1-169, produced at Accelegan Inc.); biotin (biotinylated); purchased Accelegan Inc
Summary of the method: (§1)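 Tb-streptavidin captured biotinylated KRas (1-169) in HEPES 50 mM, DTT 1 mM, MgCl2 5 mM, Tween-20 0.005% (pH 7.5), alongside tracer and compound at 1% final DMSO. One hour at RT, then read; IC50 from 4-parameter POC fit.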

KRas G12S = target: T2, KRas G12S (Homo sapiens, UniProt P01116, G12S); assay: as above; conditions: 60-minute incubation at room temperature, 1% DMSO, pH 7.5
T2 construct: Biotinylated KRas (corresponding to amino acids 1-169, produced at Accelegan Inc.); biotin (biotinylated); purchased Accelegan Inc
T2 sequence (P01116 1-169 isoform P01116-2 G12S): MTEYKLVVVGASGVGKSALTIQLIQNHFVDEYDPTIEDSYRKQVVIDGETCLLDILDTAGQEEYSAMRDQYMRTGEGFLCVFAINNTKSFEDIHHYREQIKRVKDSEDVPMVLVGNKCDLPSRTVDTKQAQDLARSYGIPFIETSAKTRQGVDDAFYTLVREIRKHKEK
Summary of the method: as §1

KRas WT = target: T3, KRas WT (Homo sapiens, UniProt P01116); assay: as above; conditions: 60-minute incubation at room temperature, 1% DMSO, pH 7.5
T3 construct: Biotinylated KRas (corresponding to amino acids 1-169, produced at Accelegan Inc.); biotin (biotinylated); purchased Accelegan Inc
T3 sequence (P01116 1-169 isoform P01116-2): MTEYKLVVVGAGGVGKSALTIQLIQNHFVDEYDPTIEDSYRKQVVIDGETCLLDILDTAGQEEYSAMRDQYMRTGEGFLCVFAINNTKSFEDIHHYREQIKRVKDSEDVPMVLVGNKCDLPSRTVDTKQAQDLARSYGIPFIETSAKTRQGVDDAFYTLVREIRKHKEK
Summary of the method: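 IC50 came from fitting POC values with a four-parameter equation. Signal was read after one hour at room temperature. Protein was biotin-tagged KRas 1-169 captured by terbium streptavidin, with compound in 1% DMSO (final).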

[1] = target: T4, KRas-mediated phosphorylation of ERK in MKN1 cells (Homo sapiens, UniProt P01116); assay: Inhibition of KRas-mediated phosphorylation of ERK (HTRF), MKN1 cells; assay type: cell-based; conditions: MKN1 cells (KRas WT); HTRF pERK; 3 h incubation
T4 construct: pERK HTRF read-out
T4 sequence (P01116 1-188 isoform P01116-2): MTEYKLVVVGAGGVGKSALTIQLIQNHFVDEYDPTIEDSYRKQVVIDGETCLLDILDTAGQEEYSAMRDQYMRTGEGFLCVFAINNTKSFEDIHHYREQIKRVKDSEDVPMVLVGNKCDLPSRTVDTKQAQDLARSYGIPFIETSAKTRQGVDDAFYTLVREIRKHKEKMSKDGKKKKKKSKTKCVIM
Experimental: Inhibition of KRas Phosphorylation of ERK (HTRF) by Exemplary Compounds of Formula (Ia) or (Ib)
Cisbio HTRF Advanced pERK Assay Catalog #64AERPEH • Cells: MKN1, PSN1 • Procedure: • 1. Day 1: Seed 6,000 cells/well −25 μl/well in 384-well white solid bottom plate; RPM1_10% FBS. Incubate overnight at 37 °C/5% CO2. • 2.

[2] = target: T5, KRas-mediated phosphorylation of ERK in A549 cells (Homo sapiens, UniProt P01116, G12S); assay: Inhibition of KRas-mediated phosphorylation of ERK (HTRF), A549 cells; assay type: cell-based; conditions: HTRF pERK, 3 h incubation
T5 construct: pERK HTRF read-out
T5 sequence (P01116 1-188 isoform P01116-2 G12S): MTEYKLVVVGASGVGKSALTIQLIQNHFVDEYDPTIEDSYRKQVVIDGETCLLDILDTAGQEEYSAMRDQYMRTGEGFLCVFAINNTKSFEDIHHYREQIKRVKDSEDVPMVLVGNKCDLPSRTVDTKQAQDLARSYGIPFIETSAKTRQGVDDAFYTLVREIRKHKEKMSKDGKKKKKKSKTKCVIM

[3] = target: T6, KRas-mediated phosphorylation of ERK in H358 cells (Homo sapiens, UniProt P01116, G12C); assay: Inhibition of KRas-mediated phosphorylation of ERK (HTRF), H358 cells; assay type: cell-based; conditions: HTRF pERK, 3 h incubation
T6 construct: pERK HTRF read-out
T6 sequence (P01116 1-188 isoform P01116-2 G12C): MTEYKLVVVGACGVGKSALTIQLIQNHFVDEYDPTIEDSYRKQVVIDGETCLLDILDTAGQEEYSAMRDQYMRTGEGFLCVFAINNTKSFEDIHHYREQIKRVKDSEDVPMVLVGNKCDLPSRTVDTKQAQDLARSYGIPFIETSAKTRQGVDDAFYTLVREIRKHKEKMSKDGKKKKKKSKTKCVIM

T1 sequence (P01116 1-169 isoform P01116-2 G12C): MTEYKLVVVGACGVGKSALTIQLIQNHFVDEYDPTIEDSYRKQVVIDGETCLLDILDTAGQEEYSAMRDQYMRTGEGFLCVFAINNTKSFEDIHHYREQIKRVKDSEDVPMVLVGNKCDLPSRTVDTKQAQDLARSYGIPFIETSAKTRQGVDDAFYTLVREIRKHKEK

IC50 (KRas G12C) | IC50 (KRas G12S) | IC50 (KRas WT) | IC50 [1] | IC50 [2] | IC50 [3] | Compound
4 nM | 16 nM | 81 nM | 177 nM | 139 nM | 31 nM | CN(CCCC(=O)Oc1ccc(F)cc1F)c1nc(OC[C@@]23CCCN2C[C@H](F)C3)nc2c(F)c(-c3ccc(F)c4sc(N)c(C#N)c34)c(Cl)cc12 [Example 271, 2,4-difluorophenyl 4-((7-(2-amino-3-cyano-7-fluorobenzo[b]thiophen-4-yl)-6-chloro-8-fluoro-2-(((2R,7aS)-2-fluorotetrahydro-1H-pyrrolizin-7a(5H)-yl)methoxy)quinazolin-4-yl)(methyl)amino)butanoate]
8 nM | 5 nM | 77 nM | 446 nM | 7 nM | 39 nM | CCc1c(F)ccc2cc(O)cc(-c3ncc4c(N(C)CCC(C)C(=O)N(C)C(C)=O)nc(OC[C@@]56CCCN5C[C@H](F)C6)nc4c3F)c12 (stereo partly drawn) [Example 284, N-acetyl-4-((7-(8-ethyl-7-fluoro-3-hydroxynaphthalen-1-yl)-8-fluoro-2-(((2R,7aS)-2-fluorotetrahydro-1H-pyrrolizin-7a(5H)-yl)methoxy)pyrido[4,3-d]pyrimidin-4-yl)(methyl)amino)-N,2-dimethylbutanamide]
< 2 nM | 9 nM | 11 nM |  | 149 nM | 22 nM | CCc1c(F)ccc2cc(O)cc(-c3ncc4c(N5CCC(C=O)CC5)nc(OC[C@@]56CCCN5C[C@H](F)C6)nc4c3F)c12 [Example 15, 1-(7-(8-ethyl-7-fluoro-3-hydroxynaphthalen-1-yl)-8-fluoro-2-(((2R,7aS)-2-fluorotetrahydro-1H-pyrrolizin-7a(5H)-yl)methoxy)pyrido[4,3-d]pyrimidin-4-yl)piperidine-4-carbaldehyde]
50 nM | 32 nM | 68 nM |  | 5900 nM | 178 nM | CCc1c(F)ccc2cc(O)cc(N3CCc4c(nc(OC[C@@]56CCCN5C[C@H](F)C6)nc4N4CCCC(C(=O)n5ccc(C)n5)C4)C3)c12 (stereo partly drawn) [Example 144, (1-(7-(8-ethyl-7-fluoro-3-hydroxynaphthalen-1-yl)-2-(((2R,7aS)-2-fluorotetrahydro-1H-pyrrolizin-7a(5H)-yl)methoxy)-5,6,7,8-tetrahydropyrido[3,4-d]pyrimidin-4-yl)piperidin-3-yl)(3-methyl-1H-pyrazol-1-yl)methanone]
439 nM | 642 nM | 138 nM |  | 4130 nM | 1760 nM | CCc1c(F)ccc2cc(O)cc(-c3ncc4c(N5CCC(C(=O)Nc6ccccn6)CC5)nc(OC[C@@]56CCCN5C[C@H](F)C6)nc4c3F)c12 [Example 153, 1-(7-(8-ethyl-7-fluoro-3-hydroxynaphthalen-1-yl)-8-fluoro-2-(((2R,7aS)-2-fluorotetrahydro-1H-pyrrolizin-7a(5H)-yl)methoxy)pyrido[4,3-d]pyrimidin-4-yl)-N-(pyridin-2-yl)piperidine-4-carboxamide]
76 nM | 115 nM | 24 nM |  | 2350 nM | 450 nM | CCc1c(F)ccc2cc(O)cc(-c3ncc4c(N5CCN(C(=O)n6cccn6)CC5)nc(OC[C@@]56CCCN5C[C@H](F)C6)nc4c3F)c12 [Example 60, (4-(7-(8-ethyl-7-fluoro-3-hydroxynaphthalen-1-yl)-8-fluoro-2-(((2R,7aS)-2-fluorotetrahydro-1H-pyrrolizin-7a(5H)-yl)methoxy)pyrido[4,3-d]pyrimidin-4-yl)piperazin-1-yl)(1H-pyrazol-1-yl) methanone]
 |  |  | 199 nM | 35 nM | 50 nM | Cc1ccn(C(=O)[C@@H]2CCCN(c3nc(OC[C@@]45CCCN4C[C@H](F)C5)nc4c(F)c(-c5ccc(F)c6sc(N)c(C#N)c56)c(Cl)cc34)CC2)n1 (atropisomer, axis not shown; (aS)) [Example 172, 2-amino-4-((S)-6-chloro-8-fluoro-2-(((2R,7aS)-2-fluorotetrahydro-1H-pyrrolizin-7a(5H)-yl)methoxy)-4-((R)-4-(3-methyl-1H-pyrazole-1-carbonyl)azepan-1-yl)quinazolin-7-yl)-7-fluorobenzo[b]thiophene-3-carbonitrile]
13 nM | 17 nM | 69 nM |  | 66 nM | 2800 nM | CCc1c(F)ccc2cc(O)cc(-c3ncc4c(N5CCC(C(=O)n6ccc(C)n6)C5)nc(OC[C@@]56CCCN5C[C@H](F)C6)nc4c3F)c12 (stereo partly drawn) [Example 56, (1-(7-(8-ethyl-7-fluoro-3-hydroxynaphthalen-1-yl)-8-fluoro-2-(((2R,7aS)-2-fluorotetrahydro-1H-pyrrolizin-7a(5H)-yl)methoxy)pyrido[4,3-d]pyrimidin-4-yl)pyrrolidin-3-yl)(3-methyl-1H -pyrazol-1-yl)methanone]
89 nM | 15 nM |  | 2090 nM | 38 nM | 2350 nM | CCc1c(F)ccc2cc(O)cc(-c3ncc4c(N5CC[C@H]6[C@@H](C5)[C@H]6C(=O)n5ccc(C)n5)nc(OC[C@@]56CCCN5C[C@H](F)C6)nc4c3F)c12 [Example 156, ((1R,6S,7S)-3-(7-(8-ethyl-7-fluoro-3-hydroxynaphthalen-1-yl)-8-fluoro-2-(((2R,7aS)-2-fluorotetrahydro-1H-pyrrolizin-7a(5H)-yl)methoxy)pyrido[4,3-d]pyrimidin-4-yl)-3-azabicyclo[4.1.0]heptan-7-yl)(3-methyl-1H-pyrazol-1-yl)methanone]
619 nM | 6330 nM | 64 nM |  | 7060 nM | 8390 nM | CCc1c(F)ccc2cc(O)cc(-c3ncc4c(N5CCC(C(=O)N(C)c6ccccn6)CC5)nc(OC[C@@]56CCCN5C[C@H](F)C6)nc4c3F)c12 [Example 62, 1-(7-(8-ethyl-7-fluoro-3-hydroxynaphthalen-1-yl)-8-fluoro-2-(((2R,7aS)-2-fluorotetrahydro-1H-pyrrolizin-7a(5H)-yl)methoxy)pyrido[4,3-d]pyrimidin-4-yl)-N-methyl-N-(pyridin-2-yl)piperidine-4-carboxamide]
9 nM | 1250 nM | 729 nM |  | > 10000 nM | 913 nM | CCc1c(F)ccc2cc(O)cc(-c3ncc4c(N5CCC(C(=O)Oc6ccc(F)c(F)c6)CC5)nc(OC[C@@]56CCCN5C[C@H](F)C6)nc4c3F)c12 [Example 40, 3,4-difluorophenyl 1-(7-(8-ethyl-7-fluoro-3-hydroxynaphthalen-1-yl)-8-fluoro-2-(((2R,7aS)-2-fluorotetrahydro-1H-pyrrolizin-7a(5H)-yl)methoxy)pyrido[4,3-d]pyrimidin-4-yl)piperidine-4-carboxylate]
56 nM | 8 nM | 166 nM |  | 38 nM | 931 nM | CCc1c(F)ccc2cc(O)cc(N3CCc4c(nc(OC[C@@]56CCCN5C[C@H](F)C6)nc4N4CCCC(C(=O)n5cccn5)CC4)C3)c12 (stereo partly drawn) [Example 143, (1-(7-(8-ethyl-7-fluoro-3-hydroxynaphthalen-1-yl)-2-(((2R,7aS)-2-fluorotetrahydro-1H-pyrrolizin-7a(5H)-yl)methoxy)-5,6,7,8-tetrahydropyrido[3,4-d]pyrimidin-4-yl)azepan-4-yl)(1H-pyrazol-1-yl)methanone]
384 nM | 72 nM | 1380 nM | 8690 nM | 245 nM |  | CCc1c(F)ccc2cc(O)cc(-c3ncc4c(N5CCCC(C(=O)n6ccc(C)n6)CC5)nc(OC[C@@H]5CCCN5C)nc4c3F)c12 (stereo partly drawn) [Example 168, (1-(7-(8-ethyl-7-fluoro-3-hydroxynaphthalen-1-yl)-8-fluoro-2-(((S)-1-methylpyrrolidin-2-yl)methoxy)pyrido[4,3-d]pyrimidin-4-yl)azepan-4-yl)(3-methyl-1H-pyrazol-1-yl)methanone]
784 nM | 934 nM | 716 nM | 5550 nM | > 10000 nM |  | CCc1c(F)ccc2cc(O)cc(-c3ncc4c(N5CC(C(=O)n6ccc(C)n6)C(C)(C)C5)nc(OC[C@@]56CCCN5C[C@H](F)C6)nc4c3F)c12 (stereo partly drawn) [Example 101, (1-(7-(8-ethyl-7-fluoro-3-hydroxynaphthalen-1-yl)-8-fluoro-2-(((2R,7aS)-2-fluorotetrahydro-1H-pyrrolizin-7a(5H)-yl)methoxy)pyrido[4,3-d]pyrimidin-4-yl)-4,4-dimethylpyrrolidin-3-yl)(3-methyl-1H-pyrazol-1-yl)methanone]
131 nM | 129 nM | 98 nM | 1250 nM | 7590 nM |  | CCc1c(F)ccc2cc(O)cc(-c3ncc4c(N(C)CCCS(=O)(=O)n5ccnc5)nc(OC[C@@]56CCCN5C[C@H](F)C6)nc4c3F)c12 [Example 163, 4-(4-((3-((1H-imidazol-1-yl)sulfonyl)propyl)(methyl)amino)-8-fluoro-2-(((2R,7aS)-2-fluorotetrahydro-1H-pyrrolizin-7a(5H)-yl)methoxy)pyrido[4,3-d]pyrimidin-7-yl)-5-ethyl-6-fluoronaphthalen-2-ol]

Reference: patent US20260356856A1, “KRAS G12S AND G12C INHIBITORS” (MIRATI THERAPEUTICS, INC., priority 2023, published 2026)
